Measured values from US10688146B2, “Curcuma mangga val et. zipp. extract as a treatment to overcome prostate problems” (PT DEXA MEDICA, priority 2013, dated 2020).

Legend:
[1] = tested on: DHT; experiment: DHT quantification with Elisa kit in PC3 cells treated with excessive testosterone; format: cell-based, human; conditions: PC3 cells with excessive testosterone 8.8 μg/ml, finasteride 2 μg/ml (positive control)
Experimental: Total protein was isolated after 24 hours treatment with the extract of Curcuma mangga Val. et Zipp. The isolation was performed using Lysis Buffer and TRIzol method. The result of total protein isolation further was calculated using Lowry method. Protein that was obtained subsequently was used as a sample for Western Blot against 5-alpha-reductase and DHT, and the DHT test using Elisa kit Alpha Diagnostic International. The analytical process of semi-Western Blot was performed in accordance to the general method, which is using specific antibody for 5-alpha-reductase-1 and DHT. The detection of Western Blot was performed using HRP-conjugated (Horseradish Peroxidase) secondary antibody and coloring with luminol.
Quantitative analysis was performed using Elisa kit in accordance to the protocol provided by the manufacturer. PC3 cells that were used in this present invention was treated with excessive testosterone which is 8.8 μg/ml, and was treated with 150 μg/ml Curcuma mangga Val. et Zipp extract and 2 μg/ml finasteride, in separate groups. In this present invention, the finasteride treatment group was a positive control.

[2] = tested on: male rats (Rattus norvegicus) Wistar strain with induced prostate gland growth; experiment: Inhibition of prostate gland growth in castrated, testosterone-induced rats; format: in vivo; conditions: finasteride 1 mg/kg
Experimental: Animals that were used in the present invention were male rats (Rattus norvegicus) Wistar strain weighing between 200-250 grams from Indoanilab, Bogor, Indonesia. The animals were bred in special cages, in groups, with a normal light setting, which are 12 hours of light and 12 hours of dark and received food and drinking water ad libitum.
The animals were divided into five groups: sham-operated group (normal group), negative control group that is BPH group without any treatment, positive control group that is treated with finasteride 1 mg/kg of body weight, and treatment group which divided into two groups based on the dose of Curcuma mangga Val. et Zipp. extract that they received, namely 92.37 mg/kg and 184.74 mg/kg of body weight. In all animals the growth of its prostate gland were induced, except for the animals in the sham-operated group.
Those rats were induced with subcutaneous administration of testosterone injection to stimulate the growth of prostate gland at the dose of 10 mg/kg body weight, every day for 7 days. The administration of testosterone injection was performed after the removal of testes (castration) and sham surgery in rats. The castration procedures were performed to avoid bias caused by the differences of testosterone amount produced by each individual rat.

**Q.** CC(C)(C)NC(=O)[C@H]1CC[C@H]2[C@@H]3CC[C@H]4NC(=O)C=C[C@]4(C)[C@H]3CC[C@]12C [finasteride] was tested. Which “DHT levels (Elisa kit)” value [1] did it give?
**A.** reduced levels of DHT

**Q.** And the DHT plasma concentration [2]?
**A.** suppression of DHT plasma concentration
